The values below come from patent US20250195521A1 (Revolution Medicines, Inc., priority 2020, published 2025).

The test system of experiment [1] is NCI-H358 cells (K-Ras G12C). Description: CellTiter-Glo cell viability, NCI-H358. It counts as cell-based, human. Conditions: Homo sapiens, NCI-H358, 120 h, K-Ras G12C, 5-day treatment; read-out: H358 Cell Viability IC50. In a few lines: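 Cells seeded, compound dispensed straight into wells, 5-day exposure. Plates brought to room temperature ~30 min, CellTiter-Glo luminescence measured. Normalized to DMSO (%), 4-parameter logistic fit.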

The target of a further experiment is KRAS G12C (Homo sapiens (Human), UniProt P01116+P62937, G12C). In words: Ras-Raf disruption/FRET/MOA assay (BRAF RBD, Cyclophilin A). Conditions: read-out: KRAS G12C FRET IC50. The experiment is classed as biochemical. The gist of the method: (§1)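 TR-FRET readout: anti-His Eu-W1024 (10 nM) and anti-GST allophycocyanin (50 nM) added after 3 h, 25° C compound incubation, then 1.5 h more. Decrease in FRET ratio versus DMSO wells marks Ras:RAF disruption; IC50 reported.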

A further experiment concerns the target KRAS G12D (Homo sapiens (Human), UniProt P01116+P62937, G12D). Described as above. The experiment is classed as biochemical. Conditions: read-out: KRAS G12D FRET IC50. In a few lines: as §1
For a further experiment, the target named is KRAS G12S (Homo sapiens (Human), UniProt P01116+P62937, G12S). Described as above. It counts as biochemical. Conditions: read-out: KRAS G12S FRET IC50. The gist of the method:
as §1

The next experiment addresses KRAS G12V (Homo sapiens (Human), UniProt P01116+P62937, G12V). Described as above. It counts as biochemical. Conditions: read-out: KRAS G12V FRET IC50. In a few lines: as §1
A further experiment deals with KRAS G13C (Homo sapiens (Human), UniProt P01116+P62937, G13C). Described as above. It counts as biochemical. Conditions: read-out: KRAS G13C FRET IC50. The gist of the method:
as §1

The target of a further experiment is KRAS G13D (Homo sapiens (Human), UniProt P01116+P62937, G13D). The experiment is described as above. The experiment is classed as biochemical. Conditions: read-out: KRAS G13D FRET data IC50. In a few lines:
as §1

The target of the next experiment is KRAS WT (Homo sapiens (Human), UniProt P01116+P62937). Described as above. It counts as biochemical. Conditions: read-out: KRAS WT FRET data IC50. The gist of the method: as §1
In a further experiment the target is NRAS G12C (Homo sapiens (Human), UniProt P01111+P62937, G12C). The experiment is described as above. It counts as biochemical. Conditions: read-out: NRAS G12C FRET data IC50. In a few lines: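 First, 25 μM Cyclophilin A, 12.5 nM His6-Ras-GMPPNP and 50 nM GST-BRAF RBD are mixed with diluted compound at pH 7.3. Next, 3 h at 25° C. Then 10 nM anti-His Eu-W1024 plus 50 nM anti-GST allophycocyanin for 1.5 h before TR-FRET reading.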

Experiment [2] deals with K-Ras G12C (NCI-H358 cells). Description: Potency assay: pERK in NCI-H358 cells. Conditions: Homo sapiens; NCI-H358 cells, 4 hours; read-out: pERK EC50 (H358 KRAS G12C). It counts as cell-based, human. In a few lines:
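Cells plated the day before were exposed for 4 h at 37° C, 5% CO2 to a 10-point, 3-fold DMSO dilution series (10 mM top stock), in duplicate. Phospho-ERK was read by AlphaLISA SureFire Ultra or by In-Cell Western with DRAQ5 DNA stain, and IC50 came from a 4-parameter sigmoidal fit.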

For the next experiment, the system named is NCI-H358 (K-Ras G12C). Description: CellTiter-Glo cell viability assay, NCI-H358. Conditions: Homo sapiens, NCI-H358, 120 h, 5-day treatment; read-out: H358 Cell Viability assay data (K-Ras G12C, IC50). It counts as cell-based, human. The gist of the method: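 Cells seeded, compound added directly to plates; day 5: plates to RT ~30 min, CellTiter-Glo luminescence; (sample/avg DMSO)*100; 4-parameter fit.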
Background: In ATP-based viability assays light output follows the ATP content of the culture.

Chain of KRAS G13D (P01116 other isoform, or with tags, fused parts or gaps G13D): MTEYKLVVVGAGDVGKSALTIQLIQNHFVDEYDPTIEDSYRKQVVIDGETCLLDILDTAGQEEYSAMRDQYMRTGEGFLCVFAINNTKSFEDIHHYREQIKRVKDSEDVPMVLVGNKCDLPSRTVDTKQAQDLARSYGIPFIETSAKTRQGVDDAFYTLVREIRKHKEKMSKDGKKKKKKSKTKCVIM
Chain of KRAS G13D (P62937 whole entry): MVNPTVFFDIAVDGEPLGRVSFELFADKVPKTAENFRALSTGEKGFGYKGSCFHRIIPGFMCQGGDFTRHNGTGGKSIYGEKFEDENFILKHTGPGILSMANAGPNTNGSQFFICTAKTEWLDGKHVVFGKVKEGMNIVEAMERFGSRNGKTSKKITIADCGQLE
Chain of KRAS WT (P01116 other isoform, or with tags, fused parts or gaps): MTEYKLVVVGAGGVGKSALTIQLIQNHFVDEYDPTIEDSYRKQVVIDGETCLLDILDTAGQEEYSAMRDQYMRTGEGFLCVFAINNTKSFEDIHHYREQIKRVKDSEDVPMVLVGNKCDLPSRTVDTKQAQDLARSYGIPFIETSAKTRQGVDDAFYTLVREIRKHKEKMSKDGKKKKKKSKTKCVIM
Chain of KRAS WT (P62937 whole entry): as the sequence (P62937 whole entry) above
Chain of KRAS G12D (P01116 other isoform, or with tags, fused parts or gaps G12D): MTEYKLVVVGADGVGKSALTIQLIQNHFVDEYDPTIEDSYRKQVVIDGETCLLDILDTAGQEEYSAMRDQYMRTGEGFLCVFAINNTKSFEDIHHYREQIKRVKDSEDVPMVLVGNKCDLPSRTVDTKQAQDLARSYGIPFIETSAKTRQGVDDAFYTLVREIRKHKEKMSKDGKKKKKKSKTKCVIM
Chain of KRAS G12D (P62937 whole entry): as the sequence (P62937 whole entry) above
Chain of KRAS G12S (P01116 other isoform, or with tags, fused parts or gaps G12S): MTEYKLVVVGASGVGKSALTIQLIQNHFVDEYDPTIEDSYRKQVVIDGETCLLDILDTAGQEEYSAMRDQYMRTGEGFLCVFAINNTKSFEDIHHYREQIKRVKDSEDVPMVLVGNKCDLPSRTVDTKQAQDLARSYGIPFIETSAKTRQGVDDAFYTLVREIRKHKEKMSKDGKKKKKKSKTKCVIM
Chain of KRAS G12S (P62937 whole entry): as the sequence (P62937 whole entry) above
Chain of NRAS G12C (P01111 whole entry G12C): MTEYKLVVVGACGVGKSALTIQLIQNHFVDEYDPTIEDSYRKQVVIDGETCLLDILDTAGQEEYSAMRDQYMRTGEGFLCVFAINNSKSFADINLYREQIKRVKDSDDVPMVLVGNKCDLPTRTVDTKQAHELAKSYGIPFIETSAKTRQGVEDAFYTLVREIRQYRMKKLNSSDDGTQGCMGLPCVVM
Chain of NRAS G12C (P62937 whole entry): as the sequence (P62937 whole entry) above
Chain of KRAS G13C (P01116 other isoform, or with tags, fused parts or gaps G13C): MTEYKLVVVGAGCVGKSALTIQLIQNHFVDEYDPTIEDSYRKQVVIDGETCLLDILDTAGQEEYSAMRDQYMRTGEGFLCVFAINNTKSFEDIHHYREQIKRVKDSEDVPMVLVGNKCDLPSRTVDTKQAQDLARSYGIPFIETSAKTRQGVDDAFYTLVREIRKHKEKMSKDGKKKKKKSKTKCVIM
Chain of KRAS G13C (P62937 whole entry): as the sequence (P62937 whole entry) above
Chain of KRAS G12V (P01116 other isoform, or with tags, fused parts or gaps G12V): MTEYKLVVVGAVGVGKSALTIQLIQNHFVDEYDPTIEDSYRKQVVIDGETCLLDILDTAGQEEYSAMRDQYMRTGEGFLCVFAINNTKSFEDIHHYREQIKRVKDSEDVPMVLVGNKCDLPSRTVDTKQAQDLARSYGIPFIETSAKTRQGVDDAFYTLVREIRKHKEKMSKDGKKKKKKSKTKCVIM
Chain of KRAS G12V (P62937 whole entry): as the sequence (P62937 whole entry) above
Chain of KRAS G12C (P01116-2 other isoform, or with tags, fused parts or gaps G12C): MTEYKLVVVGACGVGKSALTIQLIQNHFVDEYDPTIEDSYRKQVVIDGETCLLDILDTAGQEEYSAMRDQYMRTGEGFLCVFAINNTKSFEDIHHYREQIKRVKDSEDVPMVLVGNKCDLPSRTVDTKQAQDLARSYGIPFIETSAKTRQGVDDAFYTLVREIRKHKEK
Chain of KRAS G12C (P62937 whole entry): as the sequence (P62937 whole entry) above

The IC50 is the concentration needed to halve the response being measured. One may read the EC50 as the concentration giving half of the maximal effect. Turning to `CCn1c(-c2cnccc2COC)c2c3cc(ccc31)-c1cc(O)cc(c1)C[C@H](NC(=O)[C@H](C(C)C)N(C)C(=O)[C@H]1CCN(C(=O)CO)C1)C(=O)N1CCC[C@H](N1)C(=O)OCC(C)(C)C2` [Compound A20], the IC50 in experiment [1] was 1000 to 10000 nM; on KRAS G12C, 10 to 100 nM; on KRAS G12D, 1000 to 10000 nM; at KRAS G12S, 100 to 1000 nM; at KRAS G12V, 100 to 1000 nM; on KRAS G13C it was 100 to 1000 nM. For the same molecule, the IC50 on KRAS G13D was 100 to 1000 nM; on KRAS WT it was 100 to 1000 nM; on NRAS G12C it was 100 to 1000 nM; in the experiment on NCI-H358 (K-Ras G12C) it was 10 to 100 nM. In addition, the EC50 in experiment [2] is less than 5000 nM.
As for `CCn1c(-c2cnccc2COC)c2c3cc(ccc31)-c1cc(O)cc(c1)C[C@H](NC(=O)[C@H](C(C)C)N(C)C(=O)[C@H]1CCN(C[C@@H](C)O)C1)C(=O)N1CCC[C@H](N1)C(=O)OCC(C)(C)C2` [Compound A31], the IC50 in [1] is more than 10000 nM; at KRAS G12C, 100 to 1000 nM; on KRAS G12D, 100 to 1000 nM; on KRAS G12S it was 100 to 1000 nM; at KRAS G12V it was 1000 to 10000 nM; at KRAS G13C, 10 to 100 nM. For the same molecule, the IC50 at KRAS G13D was in the range of 100 to 1000 nM; on KRAS WT, 100 to 1000 nM; on NRAS G12C, 100 to 1000 nM; in the experiment on NCI-H358 (K-Ras G12C), 10 to 100 nM. In addition, in experiment [2], the concentration for a half-maximal effect (EC50) was less than 5000 nM.
As for `CCn1c(-c2cnccc2COC)c2c3cc(ccc31)-c1cc(O)cc(c1)C[C@H](NC(=O)[C@H](C(C)C)N(C)C(=O)[C@H]1CCN(C3CCOCC3)C1)C(=O)N1CCC[C@H](N1)C(=O)OCC(C)(C)C2` [Compound A45], the IC50 is 1000 to 10000 nM in [1]; 100 to 1000 nM at KRAS G12C; 100 to 1000 nM at KRAS G12D; 100 to 1000 nM at KRAS G12S; more than 10000 nM at KRAS G12V; 100 to 1000 nM at KRAS G13C. The IC50 on KRAS G13D was in the range of 10 to 100 nM; at KRAS WT, 100 to 1000 nM; at NRAS G12C, 1000 to 10000 nM; in the experiment with NCI-H358 (K-Ras G12C), 10 to 100 nM. Moreover, the EC50 in experiment [2] was less than 5000 nM.
For `CCn1c(-c2cnccc2COC)c2c3cc(ccc31)-c1cc(O)cc(c1)C[C@H](NC(=O)[C@H](C(C)C)N(C)C(=O)[C@H]1CCN(C[C@H](C)O)C1)C(=O)N1CCC[C@H](N1)C(=O)OCC(C)(C)C2` [Compound A47], the IC50 in [1] is more than 10000 nM; at KRAS G12C, 100 to 1000 nM; on KRAS G12D, 1000 to 10000 nM; at KRAS G12S it was 100 to 1000 nM; at KRAS G12V, more than 10000 nM; on KRAS G13C it was 100 to 1000 nM. The half-maximal inhibitory concentration (IC50) on KRAS G13D was 100 to 1000 nM; at KRAS WT it was 100 to 1000 nM; on NRAS G12C, 100 to 1000 nM; with NCI-H358 (K-Ras G12C), 10 to 100 nM. Besides, the concentration giving a half-maximal response (EC50) in experiment [2] was less than 5000 nM.
Regarding `CCn1c(-c2cnccc2COC)c2c3cc(ccc31)-c1cc(O)cc(c1)C[C@H](NC(=O)[C@@H](NC(C)=O)C(C)C)C(=O)N1CCC[C@H](N1)C(=O)OCC(C)(C)C2` [Compound A58], the half-inhibitory concentration (IC50) was 1000 to 10000 nM in experiment [1]; 1000 to 10000 nM at KRAS G12C; more than 10000 nM on KRAS G12D; 1000 to 10000 nM on KRAS G12S; 1000 to 10000 nM at KRAS G12V; 1000 to 10000 nM on KRAS G13C. Moreover, the IC50 was in the range of 1000 to 10000 nM at KRAS G13D, 1000 to 10000 nM on KRAS WT, 1000 to 10000 nM at NRAS G12C and 10 to 100 nM in the experiment on NCI-H358 (K-Ras G12C). Also, the concentration for a half-maximal effect (EC50) in experiment [2] was less than 5000 nM.
